From patent publication US11071300B2, “Pesticidally active pyrazole derivatives” (SYNGENTA PARTICIPATIONS AG, priority 2017, dated 2021)
Like-named read-outs stand apart in the source and are kept apart here.

What was measured:
Assay type in all cases: in vivo
Spodoptera littoralis = Spodoptera littoralis (Egyptian cotton leaf worm) leaf disc test; conditions: foliar, 72 h, application rate 200 ppm, cotton leaf discs sprayed, L1 larvae, 3 days after infestation, read-out: control (at least one of mortality, anti-feedant effect, growth inhibition)
Protocol: Spodoptera littoralis (Egyptian Cotton Leaf Worm)
Cotton leaf discs were placed on agar in 24-well microtiter plates and sprayed with aqueous test solutions prepared from 10′000 ppm DMSO stock solutions. After drying the leaf discs were infested with five L1 larvae. The samples were assessed for mortality, anti-feedant effect, and growth inhibition in comparison to untreated samples 3 days after infestation. Control of Spodoptera littoralis by a test sample is when at least one of mortality, anti-feedant effect, and growth inhibition is higher than the untreated sample.

Plutella xylostella = Plutella xylostella (diamond back moth) artificial diet test; conditions: 120 h, read-out: control (mortality and growth inhibition)
Protocol: Plutella xylostella (Diamond Back Moth):
(§1) 24-well microtiter plates with artificial diet were treated with aqueous test solutions prepared from 10′000 ppm DMSO stock solutions by pipetting. After drying, the plates were infested with L2 larvae (10 to 15 per well). The samples were assessed for mortality and growth inhibition in comparison to untreated samples 5 days after infestation.

Diabrotica Balteata = assay: Diabrotica balteata (corn root worm) maize sprout test; conditions: 96 h, read-out: control (mortality and growth inhibition)
Protocol: Diabrotica Balteata, (Corn Root Worm)
as §1, with “Maize sprouts, placed on an agar layer in 24-well” for “24-well”, “plates” for “plates with artificial diet”, “spraying.” for “pipetting.”, “(6” for “(10”, “10” for “15”, “4” for “5”

Thrips tabaci = Thrips tabaci (onion thrips) leaf disc test; conditions: foliar, 144 h, read-out: control (mortality)
Protocol: Thrips tabaci (Onion Thrips):
(§2) Sunflower leaf discs were placed on agar in 24-well microtiter plates and sprayed with aqueous test solutions prepared from 10′000 ppm DMSO stock solutions. After drying the leaf discs were infested with a thrips population of mixed ages. The samples were assessed for mortality 6 days after infestation.

Myzus persicae = Myzus persicae (green peach aphid) leaf disc test; conditions: foliar, 144 h, read-out: control (mortality)
Protocol: Myzus persicae (Green Peach Aphid):
Sunflower leaf discs were placed on agar in a 24-well microtiter plate and sprayed with test solutions at an application rate of 200 ppm. After drying, the leaf discs were infested with an aphid population of mixed ages. After an incubation period of 6 DAT, samples were checked for mortality.

Tetranychus urticae = Tetranychus urticae (two-spotted spider mite) leaf disc test; conditions: foliar, 192 h, application rate 200 ppm, bean leaf discs sprayed, 8 days after infestation, read-out: control (mortality on mixed population, mobile stages)
Protocol: Tetranychus urticae (Two-Spotted Spider Mite):
as §2, with “Bean” for “Sunflower”, “discs” for “discs were placed”, “were” for “and”, “mite” for “thrips”, “on mixed population (mobile stages) 8” for “6”

[1] = application rate 200 ppm, artificial diet, L2 larvae, 5 days after infestation
[2] = application rate 200 ppm, maize sprouts sprayed, L2 larvae, 4 days after infestation
[3] = application rate 200 ppm, sunflower leaf discs sprayed, mixed ages, 6 DAT
[4] = application rate 200 ppm, sunflower leaf discs sprayed, mixed ages, 6 days after infestation

Cn1nc(OS(=O)(=O)C(F)(F)C(F)(F)C(F)(F)C(F)(F)F)c(C(F)(F)F)c1-n1cc(-c2cnc(Cl)c(C(=O)NC3CC3)c2)cn1 [Compound 27, [5-[4-[6-chloro-5-(cyclopropylcarbamoyl)-3-pyridyl]pyrazol-1-yl]-1-methyl-4-(trifluoromethyl)pyrazol-3-yl] 1,1,2,2,3,3,4,4,4-nonafluorobutane-1-sulfonate]
≥ 80%: percent control (mortality, anti-feedant effect or growth inhibition) at 200 ppm (Spodoptera littoralis) | mortality at 200 ppm (Plutella xylostella) | mortality at 200 ppm (Diabrotica Balteata) | mortality at 200 ppm (Thrips tabaci) | mortality at 200 ppm (Myzus persicae)

CCN(C(=O)c1cc(-c2cnn(-c3c(C(F)(F)F)c(OS(=O)(=O)C(F)(C(F)(F)F)C(F)(F)F)nn3C)c2)cnc1Cl)C1CC1 [Compound 23, [5-[4-[6-chloro-5-[cyclopropyl(ethyl)carbamoyl]-3-pyridyl]pyrazol-1-yl]-1-methyl-4-(trifluoromethyl)pyrazol-3-yl] 1,1,1,2,3,3,3-heptafluoropropane-2-sulfonate]
≥ 80%: percent control (mortality, anti-feedant effect or growth inhibition) at 200 ppm (Spodoptera littoralis) | mortality at 200 ppm (Plutella xylostella; [1]) | mortality at 200 ppm (Diabrotica Balteata; [2]) | mortality at 200 ppm (Tetranychus urticae) | mortality at 200 ppm (Myzus persicae; [3])

CCN(C(=O)c1cc(-c2cc(-c3c(C(F)(F)F)c(OS(=O)(=O)C(F)(F)C(F)(F)C(F)(F)C(F)(F)F)nn3C)no2)ccc1Cl)C1CC1 [Compound 41, [5-[5-[4-chloro-3-[cyclopropyl(ethyl)carbamoyl]phenyl]isoxazol-3-yl]-1-methyl-4-(trifluoromethyl)pyrazol-3-yl] 1,1,2,2,3,3,4,4,4-nonafluorobutane-1-sulfonate]
≥ 80%: mortality at 200 ppm (Diabrotica Balteata) | mortality at 200 ppm (Myzus persicae)

CN(C(=O)c1cc(-c2cnn(-c3c(C(F)(F)F)c(OS(=O)(=O)C(F)(C(F)(F)F)C(F)(F)F)nn3C)c2)cnc1Cl)C1CC1 [Compound 22, [5-[4-[6-chloro-5-[cyclopropyl(methyl)carbamoyl]-3-pyridyl]pyrazol-1-yl]-1-methyl-4-(trifluoromethyl)pyrazol-3-yl] 1,1,1,2,3,3,3-heptafluoropropane-2-sulfonate]
≥ 80%: percent control (mortality, anti-feedant effect or growth inhibition) at 200 ppm (Spodoptera littoralis) | mortality at 200 ppm (Plutella xylostella; [1]) | mortality at 200 ppm (Diabrotica Balteata; [2]) | mortality at 200 ppm (Thrips tabaci; [4]) | mortality at 200 ppm (Tetranychus urticae) | mortality at 200 ppm (Myzus persicae; [3])

Cn1nc(OS(=O)(=O)C(F)(C(F)(F)F)C(F)(F)F)c(C(F)(F)F)c1-n1cc(-c2ccc(Cl)c(C(=O)NC3(C(F)F)CC3)c2)cn1 [Compound 64, [5-[4-[4-chloro-3-[[1-(difluoromethyl)cyclopropyl]carbamoyl]phenyl]pyrazol-1-yl]-1-methyl-4-(trifluoromethyl)pyrazol-3-yl] 1,1,1,2,3,3,3-heptafluoropropane-2-sulfonate]
≥ 80%: percent control (mortality, anti-feedant effect or growth inhibition) at 200 ppm (Spodoptera littoralis) | mortality at 200 ppm (Plutella xylostella; [1]) | mortality at 200 ppm (Tetranychus urticae) | mortality at 200 ppm (Myzus persicae; [3])

CCN(C(=O)c1cc(-c2cnn(-c3c(C(F)(F)F)c(OS(=O)(=O)C(F)(F)C(F)(F)C(F)(F)C(F)(F)F)nn3C)c2)cnc1Cl)C1CC1 [Compound 29, [5-[4-[6-chloro-5-[cyclopropyl(ethyl)carbamoyl]-3-pyridyl]pyrazol-1-yl]-1-methyl-4-(trifluoromethyl)pyrazol-3-yl] 1,1,2,2,3,3,4,4,4-nonafluorobutane-1-sulfonate]
≥ 80%: mortality at 200 ppm (Plutella xylostella) | mortality at 200 ppm (Diabrotica Balteata) | mortality at 200 ppm (Myzus persicae)

CCN(C(=O)c1cc(-c2cnn(-c3c(C(F)(F)F)c(OS(=O)(=O)C(F)(C(F)(F)F)C(F)(F)F)nn3C)c2)cnc1Cl)C1(C#N)CC1 [Compound 26, [5-[4-[6-chloro-5-[(1-cyanocyclopropyl)-ethyl-carbamoyl]-3-pyridyl]pyrazol-1-yl]-1-methyl-4-(trifluoromethyl)pyrazol-3-yl] 1,1,1,2,3,3,3-heptafluoropropane-2-sulfonate]
≥ 80%: percent control (mortality, anti-feedant effect or growth inhibition) at 200 ppm (Spodoptera littoralis) | mortality at 200 ppm (Plutella xylostella; [1]) | mortality at 200 ppm (Diabrotica Balteata; [2]) | mortality at 200 ppm (Thrips tabaci; [4]) | mortality at 200 ppm (Tetranychus urticae) | mortality at 200 ppm (Myzus persicae; [3])

Cn1nc(OS(=O)(=O)C(F)(F)C(F)(F)Cl)c(C(F)(F)F)c1-n1cc(-c2ccc(Cl)c(C(=O)NC3(C#N)CC3)c2)cn1 [Compound 8, [5-[4-[4-chloro-3-[(1-cyanocyclopropyl)carbamoyl]phenyl]pyrazol-1-yl]-1-methyl-4-(trifluoromethyl)pyrazol-3-yl] 2-chloro-1,1,2,2-tetrafluoro-ethanesulfonate]
≥ 80%: percent control (mortality, anti-feedant effect or growth inhibition) at 200 ppm (Spodoptera littoralis) | mortality at 200 ppm (Plutella xylostella; [1]) | mortality at 200 ppm (Diabrotica Balteata; [2]) | mortality at 200 ppm (Thrips tabaci; [4]) | mortality at 200 ppm (Tetranychus urticae) | mortality at 200 ppm (Myzus persicae; [3])

Cn1nc(OS(=O)(=O)C(F)(C(F)(F)F)C(F)(F)F)c(C(F)(F)F)c1-n1cc(-c2ccc(Cl)c(C(=O)N(/C(F)=C(\F)C(F)(F)F)C3(C#N)CC3)c2)cn1 [Compound 58, [5-[4-[4-chloro-3-[(1-cyanocyclopropyl)-[(E)-1,2,3,3,3-pentafluoroprop-1-enyl]carbamoyl]phenyl]pyrazol-1-yl]-1-methyl-4-(trifluoromethyl)pyrazol-3-yl] 1,1,1,2,3,3,3-heptafluoropropane-2-sulfonate]
≥ 80%: percent control (mortality, anti-feedant effect or growth inhibition) at 200 ppm (Spodoptera littoralis) | mortality at 200 ppm (Plutella xylostella; [1]) | mortality at 200 ppm (Diabrotica Balteata; [2]) | mortality at 200 ppm (Tetranychus urticae)

CCN(C(=O)c1cc(-c2cnn(-c3c(C(F)(F)F)c(OS(=O)(=O)C(F)(F)C(F)(F)Cl)nn3C)c2)ccc1Cl)C1CC1 [Compound 10, [5-[4-[4-chloro-3-[cyclopropyl(ethyl)carbamoyl]phenyl]pyrazol-1-yl]-1-methyl-4-(trifluoromethyl)pyrazol-3-yl] 2-chloro-1,1,2,2-tetrafluoro-ethanesulfonate]
≥ 80%: percent control (mortality, anti-feedant effect or growth inhibition) at 200 ppm (Spodoptera littoralis) | mortality at 200 ppm (Plutella xylostella; [1]) | mortality at 200 ppm (Diabrotica Balteata; [2]) | mortality at 200 ppm (Thrips tabaci; [4]) | mortality at 200 ppm (Tetranychus urticae) | mortality at 200 ppm (Myzus persicae; [3])

Cn1nc(OS(=O)(=O)C(F)(F)C(F)(F)F)c(C(F)(F)F)c1-n1cc(-c2ccc(Cl)c(C(=O)NC3CC3)c2)cn1 [Compound 20, [5-[4-[4-chloro-3-(cyclopropylcarbamoyl)phenyl]pyrazol-1-yl]-1-methyl-4-(trifluoromethyl)pyrazol-3-yl] 1,1,2,2,2-pentafluoroethanesulfonate]
≥ 80%: percent control (mortality, anti-feedant effect or growth inhibition) at 200 ppm (Spodoptera littoralis) | mortality at 200 ppm (Plutella xylostella; [1]) | mortality at 200 ppm (Diabrotica Balteata; [2]) | mortality at 200 ppm (Thrips tabaci; [4]) | mortality at 200 ppm (Tetranychus urticae)

CN(C(=O)c1cc(-c2cnn(-c3c(C(F)(F)F)c(OS(=O)(=O)C(F)(F)C(F)(F)Cl)nn3C)c2)ccc1Cl)C1(C#N)CC1 [Compound 19, [5-[4-[4-chloro-3-[(1-cyanocyclopropyl)-methyl-carbamoyl]phenyl]pyrazol-1-yl]-1-methyl-4-(trifluoromethyl)pyrazol-3-yl] 2-chloro-1,1,2,2-tetrafluoro-ethanesulfonate]
≥ 80%: percent control (mortality, anti-feedant effect or growth inhibition) at 200 ppm (Spodoptera littoralis) | mortality at 200 ppm (Plutella xylostella; [1]) | mortality at 200 ppm (Diabrotica Balteata; [2]) | mortality at 200 ppm (Thrips tabaci; [4]) | mortality at 200 ppm (Tetranychus urticae) | mortality at 200 ppm (Myzus persicae; [3])

CCN(C(=O)c1cc(-c2cnn(-c3c(C(F)(F)F)c(OS(=O)(=O)C(F)(F)C(F)(F)F)nn3C)c2)ccc1Cl)C1CC1 [Compound 14, [5-[4-[4-chloro-3-[cyclopropyl(ethyl)carbamoyl]phenyl]pyrazol-1-yl]-1-methyl-4-(trifluoromethyl)pyrazol-3-yl] 1,1,2,2,2-pentafluoroethanesulfonate]
≥ 80%: percent control (mortality, anti-feedant effect or growth inhibition) at 200 ppm (Spodoptera littoralis) | mortality at 200 ppm (Plutella xylostella; [1]) | mortality at 200 ppm (Diabrotica Balteata; [2]) | mortality at 200 ppm (Thrips tabaci; [4]) | mortality at 200 ppm (Myzus persicae; [3])

CN(C(=O)c1cc(-c2cnn(-c3c(C(F)(F)F)c(OS(=O)(=O)C(F)(C(F)(F)F)C(F)(F)F)nn3C)c2)ccc1Cl)C1CC1 [Compound 17, [5-[4-[4-chloro-3-[cyclopropyl(methyl)carbamoyl]phenyl]pyrazol-1-yl]-1-methyl-4-(trifluoromethyl)pyrazol-3-yl] 1,1,1,2,3,3,3-heptafluoropropane-2-sulfonate]
≥ 80%: percent control (mortality, anti-feedant effect or growth inhibition) at 200 ppm (Spodoptera littoralis) | mortality at 200 ppm (Plutella xylostella; [1]) | mortality at 200 ppm (Diabrotica Balteata; [2]) | mortality at 200 ppm (Thrips tabaci; [4]) | mortality at 200 ppm (Tetranychus urticae) | mortality at 200 ppm (Myzus persicae; [3])
